Literature values, collected in PMC4323000 (Oncotarget, 2015).

Legend:
[1] = oral; ref per compound in Table 2; cited from earlier work
[2] = tested on: ABCG2-overexpressing tumors; settings: cited from earlier work
ABCG2 = settings: ref per compound in Table 2; cited from earlier work
[3] = human; GF120918 oral; ref [13],[21],[35],[45]–[48] (GF120918), [26],[50],[51] (Telatinib); cited from earlier work

CNC(=O)c1cc(COc2nnc(Nc3ccc(Cl)cc3)c3ccoc23)ccn1 [Telatinib]
In vivo Toxicity, Acute [1]: >15 mg/kg oral | In vivo Impact on Tumor growth ([2]; ref per compound in Table 2): Yes | effect on ABCG2-overexpressing tumors ([2]; telatinib 15 mg/kg in combination with doxorubicin […], xenografted nude mouse model): significantly decrease the growth rate and tumor size | In vitro ABCG2 Specificity (ABCG2): No | In vivo Toxicity, Chronic [3]: >1 500 mg (human)
